Source: patent US8791131B2, “Imidazo[1,5]naphthyridine compounds, their pharmaceutical use and compositions” (Pfizer Inc., priority 2008, dated 2014)
pKi: −log10 of the molar value.

What was measured:
mTOR = mTOR (Homo sapiens (Human), UniProt P42345)
[1] = tested on: PI3-K (phosphorylation of AKT at serine 473) in BT20 cells; experiment: PI3-Kα cellular assay (phospho-AKT Ser473 ELISA in BT20 cells); conditions: Homo sapiens, BT-20, 1 h, read-out: S473 pAKT 10% FBS IC50 (μM);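 further: lysates read by ELISA with TMB colour at 450 nm, cells given 0.5% DMSO vehicle serve as positive control and cell-free wells as negative control, duplicate wells per concentration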
PI3-Kα = PI3-Kα (Mus musculus (Mouse), UniProt P42337); experiment: PI3-Kα biochemical assay (in vitro kinase assay, fluorescence polarization); conditions: Ki calculated from IC50, [ATP]=30 uM, Km=25 uM;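 further: Insect-cell-expressed mouse p110/p85 complex converting PI(4,5)P2, product PI(3,4,5)P3 detected by displacing TAMRA-tagged PI(3,4,5)P3 from Grip1 PH domain, lower polarization means more product, room temperature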
Sequence of PI3-Kα (P42337 whole entry, the tested form may be a part): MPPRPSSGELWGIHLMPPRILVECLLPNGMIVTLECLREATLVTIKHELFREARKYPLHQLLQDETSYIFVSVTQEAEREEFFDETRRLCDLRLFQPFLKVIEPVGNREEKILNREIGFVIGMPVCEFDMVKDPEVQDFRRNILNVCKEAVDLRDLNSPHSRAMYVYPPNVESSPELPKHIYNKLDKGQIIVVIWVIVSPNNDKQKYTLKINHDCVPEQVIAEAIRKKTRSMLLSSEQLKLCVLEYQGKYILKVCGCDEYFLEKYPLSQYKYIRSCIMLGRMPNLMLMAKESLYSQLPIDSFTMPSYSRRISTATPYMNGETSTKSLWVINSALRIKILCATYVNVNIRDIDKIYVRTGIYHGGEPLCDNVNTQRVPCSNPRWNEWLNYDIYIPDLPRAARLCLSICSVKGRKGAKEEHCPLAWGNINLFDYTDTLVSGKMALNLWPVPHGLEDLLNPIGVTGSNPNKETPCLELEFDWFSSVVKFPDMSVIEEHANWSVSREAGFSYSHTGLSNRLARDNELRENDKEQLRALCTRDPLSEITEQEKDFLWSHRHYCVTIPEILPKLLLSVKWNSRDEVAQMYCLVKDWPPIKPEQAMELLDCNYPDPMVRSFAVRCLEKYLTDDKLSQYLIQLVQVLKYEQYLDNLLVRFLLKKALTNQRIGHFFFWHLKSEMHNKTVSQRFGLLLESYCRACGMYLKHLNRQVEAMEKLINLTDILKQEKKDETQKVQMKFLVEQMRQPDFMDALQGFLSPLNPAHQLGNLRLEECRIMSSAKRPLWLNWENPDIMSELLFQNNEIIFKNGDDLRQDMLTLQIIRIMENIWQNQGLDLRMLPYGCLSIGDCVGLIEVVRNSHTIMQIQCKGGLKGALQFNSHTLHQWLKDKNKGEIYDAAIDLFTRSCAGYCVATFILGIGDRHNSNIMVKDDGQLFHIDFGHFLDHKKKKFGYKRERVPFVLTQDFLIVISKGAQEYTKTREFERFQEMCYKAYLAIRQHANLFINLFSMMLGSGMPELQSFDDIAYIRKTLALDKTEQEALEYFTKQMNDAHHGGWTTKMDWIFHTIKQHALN
Sequence of PI3-Kα (P26450 whole entry partner, the tested form may be a part): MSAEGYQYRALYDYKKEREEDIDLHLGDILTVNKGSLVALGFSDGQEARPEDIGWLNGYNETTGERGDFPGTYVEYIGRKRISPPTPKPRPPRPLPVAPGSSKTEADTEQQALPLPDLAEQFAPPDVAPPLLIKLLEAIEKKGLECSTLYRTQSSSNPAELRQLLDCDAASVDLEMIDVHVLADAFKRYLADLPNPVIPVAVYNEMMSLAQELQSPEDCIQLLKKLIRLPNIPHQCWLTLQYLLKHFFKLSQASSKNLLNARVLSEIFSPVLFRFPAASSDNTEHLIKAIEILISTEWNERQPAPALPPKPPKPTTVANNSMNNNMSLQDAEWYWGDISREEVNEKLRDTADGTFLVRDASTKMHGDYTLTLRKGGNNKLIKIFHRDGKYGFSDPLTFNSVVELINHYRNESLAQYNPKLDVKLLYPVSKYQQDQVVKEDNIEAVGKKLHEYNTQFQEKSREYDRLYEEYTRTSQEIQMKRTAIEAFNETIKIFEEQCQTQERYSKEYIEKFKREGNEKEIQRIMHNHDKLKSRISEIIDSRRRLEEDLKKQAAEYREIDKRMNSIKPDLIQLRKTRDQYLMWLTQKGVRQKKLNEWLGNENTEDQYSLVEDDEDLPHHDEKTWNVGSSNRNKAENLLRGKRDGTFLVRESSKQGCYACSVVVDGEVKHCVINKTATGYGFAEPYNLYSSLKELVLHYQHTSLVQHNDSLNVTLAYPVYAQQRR

Sequence of mTOR (P42345 2156-2469): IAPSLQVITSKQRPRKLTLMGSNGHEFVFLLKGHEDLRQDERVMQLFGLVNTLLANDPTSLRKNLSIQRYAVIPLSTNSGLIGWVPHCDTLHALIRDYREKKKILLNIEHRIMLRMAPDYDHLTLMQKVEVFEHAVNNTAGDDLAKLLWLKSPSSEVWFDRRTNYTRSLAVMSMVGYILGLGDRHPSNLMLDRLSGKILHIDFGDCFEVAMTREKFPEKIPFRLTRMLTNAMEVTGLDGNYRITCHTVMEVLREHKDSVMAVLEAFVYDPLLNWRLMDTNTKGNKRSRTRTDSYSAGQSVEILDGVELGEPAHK

Question: How did the pKi (mTOR) turn out when COc1ccc(-c2ccc3ncc4c(c3n2)n(C2CCN(CC(N)=O)CC2)c(=O)n4C)cn1 [Compound 139, 2-{4-[8-(6-methoxypyridin-3-yl)-3-methyl-2-oxo-2,3-dihydro-1H-imidazo[4,5-c][1,5]naphthyridin-1-yl]piperidin-1-yl}acetamide] was run?
Answer: 8.48

Question: And the IC50 [1]?
Answer: 0.00714 µM

Question: And the “PI3Ka Ki” value (PI3-Kα)?
Answer: 0.339 nM

Question: With COc1ccc(-c2ccc3ncc4c(c3n2)n(C2CCOCC2)c(=O)n4C)cn1 [Compound 140, 8-(6-methoxypyridin-3-yl)-3-methyl-1-(tetrahydro-2H-pyran-4-yl)-1,3-dihydro-2H-imidazo[4,5-c][1,5]naphthyridin-2-one] as the molecule, how does the pKi (mTOR) read?
Answer: 8.11

Question: What about the IC50 [1] of the same molecule?
Answer: 0.0185 µM

Question: What about the “PI3Ka Ki” value (PI3-Kα) of the same molecule?
Answer: 0.668 nM

Question: With Cn1c(=O)n(C2CCN(CC(F)(F)F)CC2)c2c3nc(-c4cnc5ccccc5c4)ccc3ncc21 [Compound 141, 3-methyl-8-quinolin-3-yl-1-[1-(2,2,2-trifluoroethyl)piperidin-4-yl]-1,3-dihydro-2H-imidazo[4,5-c][1,5]naphthyridin-2-one] as the molecule, how does the pKi (mTOR) read?
Answer: 8.02

Question: And the IC50 [1]?
Answer: 0.0148 µM

Question: What about the “PI3Ka Ki” value (PI3-Kα) of the same molecule?
Answer: 20.5 nM

Question: Which results are given for CNC(=O)N1CCC(n2c(=O)n(C)c3cnc4ccc(-c5ccc(OC)nc5)nc4c32)CC1 [Compound 142, 4-[8-(6-methoxypyridin-3-yl)-3-methyl-2-oxo-2,3-dihydro-1H-imidazo[4,5-c][1,5]naphthyridin-1-yl]-N-methylpiperidine-1-carboxamide]?
Answer: pKi (mTOR): 8.80; IC50 [1]: 0.00919 µM; PI3Ka Ki (PI3-Kα): 1.15 nM

Question: What does the source list for Cn1c(=O)n(C2CCN(C(=O)C(C)(C)O)CC2)c2c3nc(-c4cnc5ccccc5c4)ccc3ncc21 [Compound 143, 1-[1-(2-hydroxy-2-methylpropanoyl)piperidin-4-yl]-3-methyl-8-quinolin-3-yl-1,3-dihydro-2H-imidazo[4,5-c][1,5]naphthyridin-2-one]?
Answer: pKi (mTOR): 8.14; IC50 [1]: 0.028 µM; PI3Ka Ki (PI3-Kα): 0.568 nM

Question: With CN(C)CC(=O)N1CCC(n2c(=O)n(C)c3cnc4ccc(-c5ccc(N(C)C)nc5)nc4c32)CC1 [Compound 144, 8-[6-(dimethylamino)pyridin-3-yl]-1-[1-(N,N-dimethylglycyl)piperidin-4-yl]-3-methyl-1,3-dihydro-2H-imidazo[4,5-c][1,5]naphthyridin-2-one] as the molecule, how does the pKi (mTOR) read?
Answer: 8.10

Question: What about the IC50 [1] of the same molecule?
Answer: 0.0153 µM

Question: What about the “PI3Ka Ki” value (PI3-Kα) of the same molecule?
Answer: 2.1 nM

Question: With Cn1c(=O)n(C2CCN(C(=O)C(C)(C)N)CC2)c2c3nc(-c4cnc5ccccc5c4)ccc3ncc21 [Compound 145, 3-methyl-1-[1-(2-methylalanyl)piperidin-4-yl]-8-quinolin-3-yl-1,3-dihydro-2H-imidazo[4,5-c][1,5]naphthyridin-2-one] as the molecule, how does the pKi (mTOR) read?
Answer: 7.88

Question: What about the IC50 [1] of the same molecule?
Answer: 0.0117 µM

Question: What about the “PI3Ka Ki” value (PI3-Kα) of the same molecule?
Answer: 3.92 nM

Question: With Cn1c(=O)n([C@H]2CC[C@H](O)CC2)c2c3nc(-c4cnc5ccccc5c4)ccc3ncc21 [Compound 146, 1-(trans-4-hydroxycyclohexyl)-3-methyl-8-quinolin-3-yl-1,3-dihydro-2H-imidazo[4,5-c][1,5]naphthyridin-2-one] as the molecule, how does the pKi (mTOR) read?
Answer: 8.42

Question: And the IC50 [1]?
Answer: 0.00521 µM

Question: What about the “PI3Ka Ki” value (PI3-Kα) of the same molecule?
Answer: 1.2 nM

Question: With Cn1c(=O)n([C@H]2CC[C@H](OCCO)CC2)c2c3nc(-c4cnc5ccccc5c4)ccc3ncc21 [Compound 147, 1-[trans-4-(2-hydroxyethoxy)cyclohexyl]-3-methyl-8-quinolin-3-yl-1,3-dihydro-2H-imidazol[4,5-c][1,5]naphthyridin-2-one] as the molecule, how does the pKi (mTOR) read?
Answer: 8.00

Question: And the IC50 [1]?
Answer: 0.0107 µM

Question: What about the “PI3Ka Ki” value (PI3-Kα) of the same molecule?
Answer: 1.08 nM

Question: With COc1ncc(-c2ccc3ncc4c(c3n2)n([C@H]2CC[C@H](OCCO)CC2)c(=O)n4C)cn1 [Compound 148, 1-[trans-4-(2-hydroxyethoxy)cyclohexyl]-8-(2-methoxypyrimidin-5-yl)-3-methyl-1,3-dihydro-2H-imidazo[4,5-c][1,5]naphthyridin-2-one] as the molecule, how does the pKi (mTOR) read?
Answer: 7.87

Question: And the IC50 [1]?
Answer: 0.0263 µM

Question: And the “PI3Ka Ki” value (PI3-Kα)?
Answer: 2.09 nM

Question: With CN(C)c1ccc(-c2ccc3ncc4c(c3n2)n([C@H]2CC[C@H](OCCO)CC2)c(=O)n4C)cn1 [Compound 149, 8-[6-(dimethylamino)pyridin-3-yl]-1-[trans-4-(2-hydroxyethoxy)cyclohexyl]-3-methyl-1,3-dihydro-2H-imidazo[4,5-c][1,5]naphthyridin-2-one] as the molecule, how does the pKi (mTOR) read?
Answer: 8.04

Question: What about the IC50 [1] of the same molecule?
Answer: 0.0116 µM

Question: And the “PI3Ka Ki” value (PI3-Kα)?
Answer: 0.102 nM

Question: With CN(C)c1ccc(-c2ccc3ncc4c(c3n2)n(C2CCN(CC(F)(F)F)CC2)c(=O)n4C)cn1 [Compound 150, 8-[6-(dimethylamino)pyridin-3-yl]-3-methyl-1-[1-(2,2,2-trifluoroethyl)piperidin-4-yl]-1,3-dihydro-2H-imidazo[4,5-c][1,5]naphthyridin-2-one] as the molecule, how does the pKi (mTOR) read?
Answer: 7.90

Question: What about the IC50 [1] of the same molecule?
Answer: 0.0182 µM

Question: And the “PI3Ka Ki” value (PI3-Kα)?
Answer: 8.78 nM

Question: With Cc1ccc(-c2ccc3ncc4c(c3n2)n([C@H]2CC[C@H](OCCO)CC2)c(=O)n4C)cn1 [Compound 152, 1-[trans-4-(2-hydroxyethoxy)cyclohexyl]-3-methyl-8-(6-methylpyridin-3-yl)-1,3-dihydro-2H-imidazo[4,5-c][1,5]naphthyridin-2-one] as the molecule, how does the pKi (mTOR) read?
Answer: 7.94

Question: What about the IC50 [1] of the same molecule?
Answer: 0.00863 µM

Question: What about the “PI3Ka Ki” value (PI3-Kα) of the same molecule?
Answer: 1.68 nM

Question: What does the source list for COc1ncc(-c2ccc3ncc4c(c3n2)n(C2CCN(C(=O)[C@H](C)O)CC2)c(=O)n4C)cn1 [Compound 154, 1-{1-[(2S)-2-hydroxypropanoyl]piperidin-4-yl}-8-(2-methoxypyrimidin-5-yl)-3-methyl-1,3-dihydro-2H-imidazo[4,5-c][1,5]naphthyridin-2-one]?
Answer: pKi (mTOR): 9.09; IC50 [1]: 0.0342 µM; PI3Ka Ki (PI3-Kα): 2.59 nM

Question: How did the pKi (mTOR) turn out when COc1ncc(-c2ccc3ncc4c(c3n2)n(C2CCN(CC(=O)N(C)C)CC2)c(=O)n4C)cn1 [Compound 163, 2-{4-[8-(2-methoxypyrimidin-5-yl)-3-methyl-2-oxo-2,3-dihydro-1H-imidazo[4,5-c][1,5]naphthyridin-1-yl]piperidin-1-yl}-N,N-dimethylacetamide] was run?
Answer: 7.74

Question: And the IC50 [1]?
Answer: 0.037 µM

Question: What about the “PI3Ka Ki” value (PI3-Kα) of the same molecule?
Answer: 4.7 nM

Question: What does the source list for Cc1ccc(-c2ccc3ncc4c(c3n2)n(C2CCN(c3ncccn3)CC2)c(=O)n4C)cn1 [Compound 165, 3-methyl-8-(6-methylpyridin-3-yl)-1-(1-pyrimidin-2-ylpiperidin-4-yl)-1,3-dihydro-2H-imidazo[4,5-c][1,5]naphthyridin-2-one]?
Answer: pKi (mTOR): 7.14; IC50 [1]: 0.0414 µM; PI3Ka Ki (PI3-Kα): 3.52 nM

Question: With Cc1ccc(-c2ccc3ncc4c(c3n2)n(C2CCN(CCO)CC2)c(=O)n4C)cn1 [Compound 166, 1-[1-(2-hydroxyethyl)piperidin-4-yl]-3-methyl-8-(6-methylpyridin-3-yl)-1,3-dihydro-2H-imidazo[4,5-c][1,5]naphthyridin-2-one] as the molecule, how does the pKi (mTOR) read?
Answer: 7.75

Question: What about the IC50 [1] of the same molecule?
Answer: 0.0356 µM

Question: What about the “PI3Ka Ki” value (PI3-Kα) of the same molecule?
Answer: 1.77 nM

Question: With Cn1c(=O)n([C@H]2CC[C@H](O)CC2)c2c3nc(-c4cn[nH]c4)ccc3ncc21 [Compound 168, 1-(trans-4-hydroxycyclohexyl)-3-methyl-8-(1H-pyrazol-4-yl)-1,3-dihydro-2H-imidazo[4,5-c][1,5]naphthyridin-2-one] as the molecule, how does the pKi (mTOR) read?
Answer: 9.69

Question: What about the IC50 [1] of the same molecule?
Answer: 0.0197 µM

Question: What about the “PI3Ka Ki” value (PI3-Kα) of the same molecule?
Answer: 4.17 nM

Question: Cn1cc(-c2ccc3ncc4c(c3n2)n([C@H]2CC[C@H](O)CC2)c(=O)n4C)cn1 [Compound 170, 1-(trans-4-hydroxycyclohexyl)-3-methyl-8-(1-methyl-1H-pyrazo1-4-yl)-1,3-dihydro-2H-imidazo[4,5-c][1,5]naphthyridin-2-one] was tested. Which pKi (mTOR) did it give?
Answer: 8.14

Question: And the IC50 [1]?
Answer: 0.107 µM

Question: What about the “PI3Ka Ki” value (PI3-Kα) of the same molecule?
Answer: 7.44 nM

Question: Cc1ccc(-c2ccc3ncc4c(c3n2)n(C2CCN(C)CC2)c(=O)n4C)cn1 [Compound 171, 3-methyl-1-(1-methylpiperidin-4-yl)-8-(6-methylpyridin-3-yl)-1,3-dihydro-2H-imidazo[4,5-c][1,5]naphthyridin-2-one] was tested. Which pKi (mTOR) did it give?
Answer: 7.40

Question: And the IC50 [1]?
Answer: 0.0228 µM

Question: What about the “PI3Ka Ki” value (PI3-Kα) of the same molecule?
Answer: 4.26 nM

Question: Which results are given for Cc1ccc(-c2ccc3ncc4c(c3n2)n(C2CCN(CC(N)=O)CC2)c(=O)n4C)cn1 [Compound 176, 2-{4-[3-methyl-8-(6-methylpyridin-3-yl)-2-oxo-2,3-dihydro-1H-imidazo[4,5-c][1,5]naphthyridin-1-yl]piperidin-1-yl}acetamide]?
Answer: pKi (mTOR): 8.85; IC50 [1]: 0.0187 µM; PI3Ka Ki (PI3-Kα): 0.882 nM

Question: What does the source list for Cc1ccc(-c2ccc3ncc4c(c3n2)n(C2CCN(C(=O)CN(C)C)CC2)c(=O)n4C)cn1 [Compound 178, 1-[1-(N,N-dimethylglycyl)piperidin-4-yl]-3-methyl-8-(6-methylpyridin-3-yl)-1,3-dihydro-2H-imidazo[4,5-c][1,5]naphthyridin-2-one]?
Answer: pKi (mTOR): 8.93; IC50 [1]: 0.0427 µM; PI3Ka Ki (PI3-Kα): 4.09 nM

Question: Cc1ccc(-c2ccc3ncc4c(c3n2)n([C@H]2CC[C@H](O)CC2)c(=O)n4C)cn1 [Compound 179, 1-(trans-4-hydroxycyclohexyl)-3-methyl-8-(6-methylpyridin-3-yl)-1,3-dihydro-2H-imidazo[4,5-c][1,5]naphthyridin-2-one] was tested. Which pKi (mTOR) did it give?
Answer: 8.48

Question: What about the IC50 [1] of the same molecule?
Answer: 0.0185 µM

Question: What about the “PI3Ka Ki” value (PI3-Kα) of the same molecule?
Answer: 1.03 nM

Question: What does the source list for Cc1ccc(-c2ccc3ncc4c(c3n2)n(C2CCN(C(=O)CN)CC2)c(=O)n4C)cn1 [Compound 180, 1-(1-glycylpiperidin-4-yl)-3-methyl-8-(6-methylpyridin-3-yl)-1,3-dihydro-2H-imidazo[4,5-c][1,5]naphthyridin-2-one]?
Answer: pKi (mTOR): 8.42; IC50 [1]: 0.0689 µM; PI3Ka Ki (PI3-Kα): 0.32 nM

Question: Which results are given for COc1ncc(-c2ccc3ncc4c(c3n2)n(C2CCN(C)CC2)c(=O)n4C)cn1 [Compound 182, 8-(2-methoxypyrimidin-5-yl)-3-methyl-1-(1-methylpiperidin-4-yl)-1,3-dihydro-2H-imidazo[4,5-c][1,5]naphthyridin-2-one]?
Answer: pKi (mTOR): 8.35; IC50 [1]: 0.159 µM; PI3Ka Ki (PI3-Kα): 27.5 nM
